Test results as given in patent US20250127702A1, “SUNSCREEN COMPOSITION WITH CRYSTALLINE ORGANIC SUNSCREEN FILTERS” (Edgewell Personal Care Brands, LLC, priority 2021, published 2025).

Experiment: Amount of solvent needed to solubilize crystalline sunscreen filters
Format: physicochemical
Conditions: solvent: butyloctyl salicylate, capric/caprylic triglyceride
Excerpt: This is unexpected since it theoretically takes at least 37 g of the solvent combination to solvate 3 g of bis-ethylhexyloxyphenol methoxyphenyl triazine (a filter that is harder to solubilize than even avobenzone). Similarly, the theoretical amount of octocrylene, homosalate, octisalate, octinoxate, ethylhexyl benzoate and C12-C15 alkyl benzoate to solvate 3 g of bis-ethylhexyloxyphenol methoxyphenyl triazine is 21 g. […] Additional benefits from relatively less solvent content, such as migration benefits, are discussed below.
This is unexpected since it theoretically takes at least 37 g of the solvent combination to solvate 3 g of bis-ethylhexyloxyphenol methoxyphenyl triazine (a filter that is harder to solubilize than even avobenzone) and 42.8 g of the solvent combination to solvate 15.5 g of the crystalline filter combination.

- theoretical amount of the solvent combination to solvate 3 g (diisobutyl adipate, diethylhexyl maleate, butyl maleate, butyl oleate, isopropyl myristate): at least 37 g
- theoretical amount of the solvent combination to solvate 3 g (dibutyl adipate and/or diisopropyl adipate): at least 37 g
SMILES: CCCCC(CC)COc1ccc(-c2nc(-c3ccc(OC)cc3)nc(-c3ccc(OCC(CC)CCCC)cc3O)n2)c(O)c1 (centres unmarked) [bis-ethylhexyloxyphenol methoxyphenyl triazine]
